Columns and labels:
[1] = test system: muscle below MDA-MB231 tumor; assay: Normal tissue reaction, muscle below the tumor; format: in vivo, NMRI-Foxn1nu mice; conditions: for fraction of necrosis in muscle tissue: with electroporation, 7 days
Method: MDA-MB231, a human breast cancer cell line was used for the in vivo experiments. The cells were tested by rapid MAP27 panel (Taconic, Hudson N.Y.) before use without signs of infection. Cells were maintained in vitro as described in Example 1. 2.5×10^6 cells/100 μl PBS were injected subcutaneously in the flank of NMRI-Foxn1nu mice (Harlan, Indianapolis, Ind.). Tumor pieces were transplanted twice from donor mice to the flank of nude mice that were 13-19 weeks old. HYPNORM™-DORMICUM™ (fentanyl/fluanisone/midazolam; VetaPharma, Leeds, U K and Roche, Basel, Switzerland) was used for anesthesia complemented with RIMADYL® (Carprofen) (Pfizer ApS, Ballerup, Denmark) as well as lidocaine (Region Hovedstadens Apotek, Herlev, Denmark) in the incision. Mice were randomised at a tumor volume above 85 mm^3 and tumors were treated with 1) injection of calcium-chloride solution and electroporation (8 pulses of 1.0 kV/cm for 100 μs and a frequency of 1 Hz) using a 6 mm plate electrode and a square wave electroporator (CLINIPORATOR®, IGEA, Modena, Italy), 2) calcium-free physiological saline injection and electroporation (same parameters as above), 3) injection of calcium-chloride, 4) calcium-free physiological saline injection, or 5) untreated but with needle inserted in the tumor without injection and with electrodes put on the tumor without pulses applied. […] Tumor volume was calculated as ab2n/6, where “a” is the largest diameter and “b” is the largest diameter perpendicular to “a”. […] Estimation of normal tissue damages was evaluated semiquantitatively on HE-sections by light[ ]microscopy (LEICA® DM 2000 light microscope, Leica Microsystems, Wetzlar, Germany).
The presence of necrosis in the muscle samples were scored by counting numbers of necrotic myocytes per 10 HPF (400× magnification). Necrosis was only recorded if the myocytes had lost the nucleus. Increased eosinofilic intensity in the myocyte cytoplasm with a retained nucleus was not recorded as a necrotic fiber. […]

[2] = test system: MDA-MB231 (human breast cancer) tumors; assay: Fraction of tumor necrosis at different calcium concentrations and injection volumes; format: in vivo, NMRI-Foxn1nu mice; conditions: electroporation, 7 days
Method: MDA-MB231, a human breast cancer cell line was used for the in vivo experiments. The cells were tested by rapid MAP27 panel (Taconic, Hudson N.Y.) before use without signs of infection. Cells were maintained in vitro as described in Example 1. 2.5×10^6 cells/100 μl PBS were injected subcutaneously in the flank of NMRI-Foxn1nu mice (Harlan, Indianapolis, Ind.). Tumor pieces are transplanted twice from donor mice to the flank of nude mice that were 13-19 weeks old. HYPNORM™-DORMICUM™ (fentanyl/fluanisone/midazolam; VetaPharma, Leeds, U K and Roche, Basel, Switzerland) was used for anesthesia complemented with RIMADYL® (Carprofen) (Pfizer ApS, Ballerup, Denmark) as well as lidocaine (Region Hovedstadens Apotek, Herlev, Denmark) in the incision. Mice were randomised at a tumor volume above 85 mm3 and tumors were treated with 1) injection of calcium-chloride solution and electroporation (8 pulses of 1.0 kV/cm for 100 μs and a frequency of 1 Hz) using a 6 mm plate electrode and a square wave electroporator (CLINIPORATOR®, IGEA, Modena, Italy), 2) calcium-free physiological saline injection and electroporation (same parameters as above), 3) injection of calcium-chloride, 4) calcium-free physiological saline injection, or 5) untreated but with needle inserted in the tumor without injection and with electrodes put on the tumor without pulses applied. […] Tumor volume was calculated as ab2n/6, where a is the largest diameter and b is the largest diameter perpendicular to a. The solutions were injected through the side of the firm tumor and the needle was moved around inside the tumor to secure injection all over the tumor. Tumors were removed 7 days after treatment, fixated in formalin (10% neutrally buffered) and paraffin embedded. Subsequently, tissue sections with a thickness of 3 μm were HE-stained according to the routine procedure of the department. The fraction of necrosis within the tumor was estimated from HE-sections using a light microscope, evaluated by a pathologist, blinded with respect to treatment status.

[3] = test system: skin dermis and subcutis above MDA-MB231 tumor; assay: Normal tissue reaction, skin above the tumor; format: in vivo, NMRI-Foxn1nu mice; conditions: some of the mice treated with the high concentration and volume of calcium
Method: MDA-MB231, a human breast cancer cell line was used for the in vivo experiments. The cells were tested by rapid MAP27 panel (Taconic, Hudson N.Y.) before use without signs of infection. Cells were maintained in vitro as described in Example 1. 2.5×10^6 cells/100 μl PBS were injected subcutaneously in the flank of NMRI-Foxn1nu mice (Harlan, Indianapolis, Ind.). Tumor pieces were transplanted twice from donor mice to the flank of nude mice that were 13-19 weeks old. HYPNORM™-DORMICUM™ (fentanyl/fluanisone/midazolam; VetaPharma, Leeds, U K and Roche, Basel, Switzerland) was used for anesthesia complemented with RIMADYL® (Carprofen) (Pfizer ApS, Ballerup, Denmark) as well as lidocaine (Region Hovedstadens Apotek, Herlev, Denmark) in the incision. […] Tumor volume was calculated as ab2n/6, where “a” is the largest diameter and “b” is the largest diameter perpendicular to “a”. […] Estimation of normal tissue damages was evaluated semiquantitatively on HE-sections by light[ ]microscopy (LEICA® DM 2000 light microscope, Leica Microsystems, Wetzlar, Germany).
The presence of inflammation in the skin dermis and subcutis was scored from 1-3 (1=minimal, 2=moderate and 3=severe). Edema in the dermis, extravasations of erythrocytes and vasculitis was noted if present, but not scored.

DC-3F cells = assay: ATP assay after calcium electroporation; format: cell-based, Chinese hamster
Method: DC-3F cells are electroporated as described in Example 1 with 1 mM calcium. Cells electroporated with HEPES buffer, non-electroporated cells with 1 mM calcium, and untreated cells are used as controls. Cell death induced by irreversible electroporation (8 pulses of 6.6 kV/cm with pulse duration of 99 μs) is used as […]. Cells are seeded in 96-well plates at a concentration of 3.1×10^4 cells/100 μl. Cells are lysed using Cell-Based Assay Lysis Buffer (Cayman Chemical, Ann Arbor, Mich.) and ATP content is determined after 1, 4 and 8 hours incubation by adding 100 μl rL/L Reagent (ENLITEN® ATP assay, Promega, Madison, Wis.) and measuring light emission using a luminometer (LUMIstar®, BMG biotechnology, Ortenberg, Germany).
Difference in ATP level after different treatments is assessed using two-way ANOVA with post least-squares-means test with Bonferroni correction for multiple comparisons.

Q: How did the “fraction of muscle tissue affected” value ([1]; after calcium electroporation of the tumor above the muscle) turn out when `[Ca+2].[Cl-].[Cl-]` [calcium chloride] was run?
A: only a minor fraction

Q: And the “fraction of necrosis in muscle tissue” value ([1]; at increasing calcium concentrations)?
A: increase in the fraction of necrosis

Q: What about the “fraction of necrosis in muscle tissue” value ([1]; at increasing injection volumes) of the same compound?
A: slight increase in the fraction of necrosis

Q: And the “fraction of necrosis in tumors” value ([2]; 100 mM to 500 mM calcium, constant injection volume 50% of tumor volume)?
A: higher than the fraction of necrosis in untreated tumors

Q: What about the “injection volume with highest fraction of necrosis” value ([2]; 168 mM calcium) of the same compound?
A: 40 % of the tumor volume

Q: And the “fraction of necrosis in tumors” value ([2]; injection volumes 20% to 80% of tumor volume, constant 168 mM calcium)?
A: higher than the fraction of necrosis in untreated tumors

Q: And the “ulceration above the tumor” value [3]?
A: ulceration above the tumor was seen

Q: And the “ATP level, percent of control” value (DC-3F cells; 1 mM calcium with electroporation, up to 8 hours after treatment)?
A: 10.3%

Q: What about the “effect on ATP levels” value (DC-3F cells; 1 mM calcium without electroporation) of the same compound?
A: does not affect ATP levels
